Experimental findings from patent publication US20240041050A1, “CELL PENETRATING PEPTIDE MEDIATED RNA TRANSDUCTION WITHIN INSECT CELLS” (PIONEER HI-BRED INTERNATIONAL, INC., priority 2020, published 2024) are described below.

Ends that are not written are not given here.

One data set has as its system S2 cells. The experiment in a line: CPP-mediated enhancement of Cy3-dsRNA uptake into insect cells. The format is cell-based, Drosophila melanogaster. The source says: (§1) Sample preparation and analysis methods were based on those previously reported (Jafari et al. (201 4) “Serum stability and physicochemical characterization of a novel amphipathic peptide C6M 1 for siRNA delivery”, PLoS One, 9(5), e97797; and Gillet et al. (2017) “Investigating Engineered Ribonucleoprotein Particles to Improve Oral RNAi Delivery in Crop Insect Pests”, Frontiers in Physiology, 8(256), doi: 10.3389/fphys.2017.00256). Reagents are described in Examples 1 and 2. Nanocomplex samples were prepared in one of several ways, depending on type of CPP, RNA, or assay. For insect cell-based assays with CPP-FAM or CPP·mRNA, increasing amounts of CPP (from 25 μM to 100 μM, in 25 μM increments) were used alone or mixed with […] mRNA in water and incubated at 25° C. for 15 minutes prior to cell treatment. […] Final optimal CPP concentration was assessed by amount of fluorescent signal apparent within cells. […] Final optimal molar ratio selected for cell experiments were determined by increase of the apparent size of the Cy3-dsRNA band on a native agarose gel (FIG. 2A and FIG. 2B), and/or appearance and increase in size of the complex peak detected by a Zetasizer Ultra (Malvern Panalytical, Malvern, United Kingdom) DLS instrument (FIG. 2C). […] Final optimal BAPC1 concentration was assessed by amount of fluorescent signal apparent within cells. […]

In another data set the test system is Sf9 cells. The description is as above. The format is cell-based, Spodoptera frugiperda.
Excerpt: as §1

Setting [1] is: same amount as used in the complexes, no CPP.

As for “UCCUUGAUAUCCGGUUCGGUA / AGGAACUAUAGGCCAAGCCAU (Cy3 at each 5' end, chemistry not fully specified; one strand is listed 3' to 5') [Cy3-siRNA]”, in the data set with S2 cells (setting [1]), the “fluorescent signal of YFP or Cy3 in single-component treated cells” value was “Low or no fluorescent signal”. Besides, in the data set with Sf9 cells (setting [1]), the “fluorescent signal in single-component treated cells” value was “Low or no fluorescent signal”.

With “bis(FLIVI)-K-KKKK; bis(FLIVIGSII)-K-KKKK (chain 1 FLIVIK(FLIVI)KKKK; chain 2 FLIVIGSIIK(FLIVIGSII)KKKK; also: forms branched peptide capsules) [BAPC1]”, the “internalization of Cy3-dsRNA versus Cy3-dsRNA alone” value with S2 cells (17.6 μg BAPC1 and 100 ng Cy3-dsRNA, N/P ratio of 15) is “increased internalization of labeled dsRNA”; in the data set on Sf9 cells (5.9 μg BAPC1 and 100 ng Cy3-dsRNA, N/P ratio of 5, 4 hours) it was “Increased internalization of labeled dsRNA”.
